Measured values from the supplement of paper PMC10307832.

How the values were obtained:
Assay in all cases: relative viability (nuclei count vs DMSO), 5 days (fraction); higher = more cells survive
NCI-H2228 = system: NCI-H2228
How it was run: (§1)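 For relative viability, nuclei counts in treated wells were divided by those in vehicle wells. Lung cancer cell lines had been pin-tool dosed in 1536-well plates the day after seeding and cultured for 5 days, then fixed and stained in one step (final 0.05% Triton X-100, 1% formaldehyde, 1 ug/ml Hoechst) and imaged at 4×. Doses were one drug alone or a fixed anchor-drug dose plus five library-drug doses (not always all listed) in √10 steps, and values are duplicate-plate medians.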

NCI-H1993 = system: NCI-H1993
How it was run: as §1

NCI-H2023 = system: NCI-H2023
How it was run: as §1

NCI-H838 = system: NCI-H838
How it was run: as §1

HARA = system: HARA
How it was run: as §1

COR-L23 = system: COR-L23
How it was run: as §1

NCI-H23 = system: NCI-H23
How it was run: as §1

UMC-11 = system: UMC-11
How it was run: as §1

NCI-H1944 = system: NCI-H1944
How it was run: as §1

ABC-1 = system: ABC-1
How it was run: as §1

SK-LU-1 = system: SK-LU-1
How it was run: as §1

LC-2-ad = system: LC-2-ad
How it was run: as §1

EMC-BAC-2 = system: EMC-BAC-2
How it was run: as §1

NCI-H2126 = system: NCI-H2126
How it was run: as §1

HCC-15 = system: HCC-15
How it was run: as §1

NCI-H1734 = system: NCI-H1734
How it was run: as §1

ChaGo-K-1 = system: ChaGo-K-1
How it was run: as §1

NCI-H2009 = system: NCI-H2009
How it was run: as §1

A-427 = system: A-427
How it was run: as §1

NCI-H1793 = system: NCI-H1793
How it was run: as §1

NCI-H2405 = system: NCI-H2405
How it was run: as §1

## O=C(O)c1ccc(-c2c[nH]c3ncc(-c4ccccc4)cc23)cc1C1CCCC1 + CCNC(=O)c1noc(-c2cc(C(C)C)c(O)cc2O)c1-c1ccc(CN2CCOCC2)cc1 [Luminespib] (partner 0.01 µM)
NCI-H2228; first compound 0.04 µM
  relative viability: 0.144
NCI-H2228; first compound 0.1265 µM
  relative viability: 0.188
NCI-H2228; first compound 0.4 µM
  relative viability: 0.0961
NCI-H2228; first compound 1.265 µM
  relative viability: 0.0961
NCI-H1993; first compound 0.04 µM
  relative viability: 0.912
NCI-H1993; first compound 0.1265 µM
  relative viability: 0.831
NCI-H1993; first compound 0.4 µM
  relative viability: 0.795
NCI-H1993; first compound 1.265 µM
  relative viability: 0.612
NCI-H2023; first compound 0.04 µM
  relative viability: 0.694
NCI-H2023; first compound 0.1265 µM
  relative viability: 1.01
NCI-H2023; first compound 0.4 µM
  relative viability: 0.75
NCI-H2023; first compound 1.265 µM
  relative viability: 0.34
NCI-H838; first compound 0.04 µM
  relative viability: 0.315
NCI-H838; first compound 0.1265 µM
  relative viability: 0.266
NCI-H838; first compound 0.4 µM
  relative viability: 0.26
NCI-H838; first compound 1.265 µM
  relative viability: 0.287
HARA; first compound 0.04 µM
  relative viability: 0.767
HARA; first compound 0.1265 µM
  relative viability: 0.748
HARA; first compound 0.4 µM
  relative viability: 0.141
HARA; first compound 1.265 µM
  relative viability: 0.418
COR-L23; first compound 0.04 µM
  relative viability: 0.656
COR-L23; first compound 0.1265 µM
  relative viability: 0.742
COR-L23; first compound 0.4 µM
  relative viability: 0.612
COR-L23; first compound 1.265 µM
  relative viability: 0.407
NCI-H23; first compound 0.04 µM
  relative viability: 0.224
NCI-H23; first compound 0.1265 µM
  relative viability: 0.217
NCI-H23; first compound 0.4 µM
  relative viability: 0.217
NCI-H23; first compound 1.265 µM
  relative viability: 0.2
UMC-11; first compound 0.04 µM
  relative viability: 0.919
UMC-11; first compound 0.1265 µM
  relative viability: 1.05
UMC-11; first compound 0.4 µM
  relative viability: 0.974
UMC-11; first compound 1.265 µM
  relative viability: 0.738
NCI-H1944; first compound 0.04 µM
  relative viability: 0.687
NCI-H1944; first compound 0.1265 µM
  relative viability: 0.836
NCI-H1944; first compound 0.4 µM
  relative viability: 0.716
NCI-H1944; first compound 1.265 µM
  relative viability: 0.702
ABC-1; first compound 0.1265 µM
  relative viability: 0.572
ABC-1; first compound 1.265 µM
  relative viability: 0.509
SK-LU-1; first compound 0.04 µM
  relative viability: 0.204
SK-LU-1; first compound 0.1265 µM
  relative viability: 0.196
SK-LU-1; first compound 0.4 µM
  relative viability: 0.231
SK-LU-1; first compound 1.265 µM
  relative viability: 0.179
LC-2-ad; first compound 0.04 µM
  relative viability: 0.874
LC-2-ad; first compound 0.1265 µM
  relative viability: 1.08
LC-2-ad; first compound 0.4 µM
  relative viability: 0.822
LC-2-ad; first compound 1.265 µM
  relative viability: 0.566
EMC-BAC-2; first compound 0.04 µM
  relative viability: 1.19
EMC-BAC-2; first compound 0.1265 µM
  relative viability: 1.16
EMC-BAC-2; first compound 0.4 µM
  relative viability: 1.13
EMC-BAC-2; first compound 1.265 µM
  relative viability: 0.975
NCI-H2126; first compound 0.04 µM
  relative viability: 0.937
NCI-H2126; first compound 0.1265 µM
  relative viability: 0.955
NCI-H2126; first compound 0.4 µM
  relative viability: 0.796
NCI-H2126; first compound 1.265 µM
  relative viability: 0.619
HCC-15; first compound 0.04 µM
  relative viability: 0.266
HCC-15; first compound 0.1265 µM
  relative viability: 0.384
HCC-15; first compound 0.4 µM
  relative viability: 0.265
HCC-15; first compound 1.265 µM
  relative viability: 0.192
NCI-H1734; first compound 0.04 µM
  relative viability: 0.186
NCI-H1734; first compound 0.1265 µM
  relative viability: 0.194
NCI-H1734; first compound 0.4 µM
  relative viability: 0.224
NCI-H1734; first compound 1.265 µM
  relative viability: 0.202
ChaGo-K-1; first compound 0.04 µM
  relative viability: 0.712
ChaGo-K-1; first compound 0.1265 µM
  relative viability: 0.651
ChaGo-K-1; first compound 0.4 µM
  relative viability: 0.56
ChaGo-K-1; first compound 1.265 µM
  relative viability: 0.536
NCI-H2009; first compound 0.04 µM
  relative viability: 1.05
NCI-H2009; first compound 0.1265 µM
  relative viability: 1.03
NCI-H2009; first compound 0.4 µM
  relative viability: 0.963
NCI-H2009; first compound 1.265 µM
  relative viability: 0.75
A-427; first compound 0.04 µM
  relative viability: 0.956
A-427; first compound 0.1265 µM
  relative viability: 1.01
A-427; first compound 0.4 µM
  relative viability: 0.647
A-427; first compound 1.265 µM
  relative viability: 0.577
NCI-H1793; first compound 0.04 µM
  relative viability: 0.19
NCI-H1793; first compound 0.1265 µM
  relative viability: 0.166
NCI-H1793; first compound 0.4 µM
  relative viability: 0.151
NCI-H1793; first compound 1.265 µM
  relative viability: 0.148
NCI-H2405; first compound 0.04 µM
  relative viability: 0.778
NCI-H2405; first compound 0.1265 µM
  relative viability: 0.831
NCI-H2405; first compound 0.4 µM
  relative viability: 0.579
NCI-H2405; first compound 1.265 µM
  relative viability: 0.535
